From PubChem BioAssay AID2060901 (Molecular Pharmacology Branch, DTP, NCI, 2025)

System: 422866-222-R5-J1-PDC complex spheroids viability
Experiment: Anticancer human tumor 422866-222-R5-J1-PDC patient-derived pancreatic adenocarcinoma cell line growth inhibition [RAS]
Conditions: for IC50: curve of first compound; for viability, T/C: stronger effect = lower value
How it was run: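 Tumour cells grown as complex spheroids with HUVEC endothelial cells and mesenchymal stem cells, treated with RAS pathway inhibitor combinations. Each agent spans half-log steps from near clinical Cmax, or 10 microM where Cmax is unknown.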
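Also: spheroids exposed to compounds for 7 days.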
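For viability, T/C in this document: 100% = DMSO vehicle control viability.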

## CCC(CC)c1cc(NC2CCC(N)C2)n2nccc2n1 (centres undefined) + C=CC(=O)N1CCN(c2nc(OCC3CCCN3C)nc3c(F)c(-c4nc(N)cc(C)c4C(F)(F)F)c(Cl)cc23)C(C)C1
Second compound 0.00316 µM
  IC50: < 31.6 nM
Second compound 0.01 µM
  IC50: < 31.6 nM
Second compound 0.0316 µM
  IC50: < 31.6 nM
Second compound 0.1 µM
  IC50: < 31.6 nM
Second compound 0.316 µM
  IC50: < 31.6 nM
Second compound 1 µM
  IC50: < 31.6 nM
Second compound 0.00316 µM, first compound 0.0316 µM
  viability, T/C: 25.9%
Second compound 0.00316 µM, first compound 0.1 µM
  viability, T/C: 36.1%
Second compound 0.00316 µM, first compound 0.316 µM
  viability, T/C: 32.8%
Second compound 0.00316 µM, first compound 1 µM
  viability, T/C: 30.5%
Second compound 0.00316 µM, first compound 3.16 µM
  viability, T/C: 9.42%
Second compound 0.00316 µM, first compound 10 µM
  viability, T/C: 32.1%
Second compound 0.01 µM, first compound 0.0316 µM
  viability, T/C: 36.9%
Second compound 0.01 µM, first compound 0.1 µM
  viability, T/C: 26.8%
Second compound 0.01 µM, first compound 0.316 µM
  viability, T/C: 30.6%
Second compound 0.01 µM, first compound 1 µM
  viability, T/C: 28.9%
Second compound 0.01 µM, first compound 3.16 µM
  viability, T/C: 8.11%
Second compound 0.01 µM, first compound 10 µM
  viability, T/C: 33.1%
Second compound 0.0316 µM, first compound 0.0316 µM
  viability, T/C: 38.8%
Second compound 0.0316 µM, first compound 0.1 µM
  viability, T/C: 34.4%
Second compound 0.0316 µM, first compound 0.316 µM
  viability, T/C: 26.6%
Second compound 0.0316 µM, first compound 1 µM
  viability, T/C: 27.2%
Second compound 0.0316 µM, first compound 3.16 µM
  viability, T/C: 8.27%
Second compound 0.0316 µM, first compound 10 µM
  viability, T/C: 31.5%
Second compound 0.1 µM, first compound 0.0316 µM
  viability, T/C: 19.1%
Second compound 0.1 µM, first compound 0.1 µM
  viability, T/C: 24.1%
Second compound 0.1 µM, first compound 0.316 µM
  viability, T/C: 24.2%
Second compound 0.1 µM, first compound 1 µM
  viability, T/C: 25.6%
Second compound 0.1 µM, first compound 3.16 µM
  viability, T/C: 6.99%
Second compound 0.1 µM, first compound 10 µM
  viability, T/C: 35.6%
Second compound 0.316 µM, first compound 0.0316 µM
  viability, T/C: 19.3%
Second compound 0.316 µM, first compound 0.1 µM
  viability, T/C: 22.3%
Second compound 0.316 µM, first compound 0.316 µM
  viability, T/C: 27.6%
Second compound 0.316 µM, first compound 1 µM
  viability, T/C: 25.3%
Second compound 0.316 µM, first compound 3.16 µM
  viability, T/C: 7.15%
Second compound 0.316 µM, first compound 10 µM
  viability, T/C: 36.3%
Second compound 1 µM, first compound 0.0316 µM
  viability, T/C: 19.6%
Second compound 1 µM, first compound 0.1 µM
  viability, T/C: 22.8%
Second compound 1 µM, first compound 0.316 µM
  viability, T/C: 28.9%
Second compound 1 µM, first compound 1 µM
  viability, T/C: 27.1%
Second compound 1 µM, first compound 3.16 µM
  viability, T/C: 9.75%
Second compound 1 µM, first compound 10 µM
  viability, T/C: 41.1%

## CC(=O)OC12COC1CC(O)C1(C)C(=O)C(O)C3=C(C)C(OC(=O)C(O)C(NC(=O)OC(C)(C)C)c4ccccc4)CC(O)(C(OC(=O)c4ccccc4)C21)C3(C)C (centres undefined) + CCn1c(-c2cc(N3CCN(C)CC3)cnc2C(C)OC)c2c3cc(ccc31)-c1csc(n1)CC(NC(=O)C1CC1C)C(=O)N1CCCC(N1)C(=O)OCC(C)(C)C2
Second compound 0.000949 µM
  IC50: < 31.6 nM
Second compound 0.003 µM
  IC50: < 31.6 nM
Second compound 0.00949 µM
  IC50: < 31.6 nM
Second compound 0.03 µM
  IC50: < 31.6 nM
Second compound 0.0949 µM
  IC50: < 31.6 nM
Second compound 0.3 µM
  IC50: < 31.6 nM
Second compound 0.000949 µM, first compound 0.0316 µM
  viability, T/C: 23.3%
Second compound 0.000949 µM, first compound 0.1 µM
  viability, T/C: 25.6%
Second compound 0.000949 µM, first compound 0.316 µM
  viability, T/C: 26.9%
Second compound 0.000949 µM, first compound 1 µM
  viability, T/C: 31.8%
Second compound 0.000949 µM, first compound 3.16 µM
  viability, T/C: 29.4%
Second compound 0.000949 µM, first compound 10 µM
  viability, T/C: 23.2%
Second compound 0.003 µM, first compound 0.0316 µM
  viability, T/C: 18.8%
Second compound 0.003 µM, first compound 0.1 µM
  viability, T/C: 19.6%
Second compound 0.003 µM, first compound 0.316 µM
  viability, T/C: 18.6%
Second compound 0.003 µM, first compound 1 µM
  viability, T/C: 20.6%
Second compound 0.003 µM, first compound 3.16 µM
  viability, T/C: 21.5%
Second compound 0.003 µM, first compound 10 µM
  viability, T/C: 20.5%
Second compound 0.00949 µM, first compound 0.0316 µM
  viability, T/C: 14.5%
Second compound 0.00949 µM, first compound 0.1 µM
  viability, T/C: 15.8%
Second compound 0.00949 µM, first compound 0.316 µM
  viability, T/C: 16.4%
Second compound 0.00949 µM, first compound 1 µM
  viability, T/C: 17.7%
Second compound 0.00949 µM, first compound 3.16 µM
  viability, T/C: 17.3%
Second compound 0.00949 µM, first compound 10 µM
  viability, T/C: 18.3%
Second compound 0.03 µM, first compound 0.0316 µM
  viability, T/C: 16.3%
Second compound 0.03 µM, first compound 0.1 µM
  viability, T/C: 18.6%
Second compound 0.03 µM, first compound 0.316 µM
  viability, T/C: 16.1%
Second compound 0.03 µM, first compound 1 µM
  viability, T/C: 17%
Second compound 0.03 µM, first compound 3.16 µM
  viability, T/C: 16.9%
Second compound 0.03 µM, first compound 10 µM
  viability, T/C: 19.4%
Second compound 0.0949 µM, first compound 0.0316 µM
  viability, T/C: 17.9%
Second compound 0.0949 µM, first compound 0.1 µM
  viability, T/C: 16.5%
Second compound 0.0949 µM, first compound 0.316 µM
  viability, T/C: 18.7%
Second compound 0.0949 µM, first compound 1 µM
  viability, T/C: 17.8%
Second compound 0.0949 µM, first compound 3.16 µM
  viability, T/C: 17%
Second compound 0.0949 µM, first compound 10 µM
  viability, T/C: 22.1%
Second compound 0.3 µM, first compound 0.0316 µM
  viability, T/C: 16.7%
Second compound 0.3 µM, first compound 0.1 µM
  viability, T/C: 17.1%
Second compound 0.3 µM, first compound 0.316 µM
  viability, T/C: 18.4%
Second compound 0.3 µM, first compound 1 µM
  viability, T/C: 17.8%
Second compound 0.3 µM, first compound 3.16 µM
  viability, T/C: 19.9%
Second compound 0.3 µM, first compound 10 µM
  viability, T/C: 21.5%
